For orientation: IC50 means the concentration that gives 50% inhibition.

Experimental findings from US20250361230A1, “LATS Inhibitors and Uses Thereof” (The USA, as Represented by the Secretary, Dept. of Heath …, priority 2022, published 2025) are described below.

Format in all cases: biochemical
One test addresses T1, LATS1 (Homo sapiens, UniProt O95835).
T1 sequence (O95835 1-1130): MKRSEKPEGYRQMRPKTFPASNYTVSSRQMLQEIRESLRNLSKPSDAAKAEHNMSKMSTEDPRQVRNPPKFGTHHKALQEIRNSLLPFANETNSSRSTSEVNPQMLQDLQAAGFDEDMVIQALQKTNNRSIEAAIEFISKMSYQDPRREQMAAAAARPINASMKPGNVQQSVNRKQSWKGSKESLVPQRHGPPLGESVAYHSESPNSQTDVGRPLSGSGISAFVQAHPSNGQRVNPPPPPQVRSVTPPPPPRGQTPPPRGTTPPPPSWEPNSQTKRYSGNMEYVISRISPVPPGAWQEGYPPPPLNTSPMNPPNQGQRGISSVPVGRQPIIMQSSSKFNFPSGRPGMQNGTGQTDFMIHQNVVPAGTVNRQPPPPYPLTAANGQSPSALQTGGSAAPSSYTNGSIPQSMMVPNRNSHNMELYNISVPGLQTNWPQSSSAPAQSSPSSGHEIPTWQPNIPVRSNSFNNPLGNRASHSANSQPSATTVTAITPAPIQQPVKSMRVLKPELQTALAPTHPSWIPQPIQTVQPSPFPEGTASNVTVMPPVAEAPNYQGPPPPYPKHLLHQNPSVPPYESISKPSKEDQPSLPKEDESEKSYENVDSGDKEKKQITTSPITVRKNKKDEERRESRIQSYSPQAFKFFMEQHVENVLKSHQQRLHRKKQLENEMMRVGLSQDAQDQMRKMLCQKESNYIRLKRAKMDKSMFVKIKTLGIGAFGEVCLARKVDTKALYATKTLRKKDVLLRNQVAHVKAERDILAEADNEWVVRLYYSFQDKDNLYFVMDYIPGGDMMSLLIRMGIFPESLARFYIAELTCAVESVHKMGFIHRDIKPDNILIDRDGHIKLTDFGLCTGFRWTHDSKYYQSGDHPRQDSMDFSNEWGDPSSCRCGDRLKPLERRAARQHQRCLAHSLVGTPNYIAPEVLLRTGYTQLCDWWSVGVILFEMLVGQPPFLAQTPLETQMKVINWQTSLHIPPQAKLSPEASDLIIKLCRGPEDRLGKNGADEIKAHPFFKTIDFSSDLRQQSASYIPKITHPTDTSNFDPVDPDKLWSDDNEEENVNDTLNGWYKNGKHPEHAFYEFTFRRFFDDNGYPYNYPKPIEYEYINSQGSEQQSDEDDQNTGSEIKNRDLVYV
As to the kind of experiment: RBC HotSpot kinase assay (33P-ATP, P81 filter-binding), LATS1. The settings on record: Table 28, biochemical kinase assay; read-out: LATS1 IC50. The method, boiled down:
(§1)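 Hepes pH 7.5/MgCl2/EGTA/Brij35/BSA/Na3VO4/DTT buffer, cofactors per kinase; cpd acoustically dispensed, 20 min preinc RT; start w/ 33P-ATP, 2 h RT; P81 filter readout; 10-pt singlet IC50.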

The target in the next test is AKT (Homo sapiens, UniProt P31749). Put plainly: RBC HotSpot kinase assay (33P-ATP, P81 filter-binding), AKT. Particulars: Table 28, biochemical kinase assay; read-out: AKT IC50. In short, it runs like this:
as §1

In the next test the target is T2, LATS2 (Homo sapiens, UniProt Q9NRM7).
T2 sequence (Q9NRM7 1-1088): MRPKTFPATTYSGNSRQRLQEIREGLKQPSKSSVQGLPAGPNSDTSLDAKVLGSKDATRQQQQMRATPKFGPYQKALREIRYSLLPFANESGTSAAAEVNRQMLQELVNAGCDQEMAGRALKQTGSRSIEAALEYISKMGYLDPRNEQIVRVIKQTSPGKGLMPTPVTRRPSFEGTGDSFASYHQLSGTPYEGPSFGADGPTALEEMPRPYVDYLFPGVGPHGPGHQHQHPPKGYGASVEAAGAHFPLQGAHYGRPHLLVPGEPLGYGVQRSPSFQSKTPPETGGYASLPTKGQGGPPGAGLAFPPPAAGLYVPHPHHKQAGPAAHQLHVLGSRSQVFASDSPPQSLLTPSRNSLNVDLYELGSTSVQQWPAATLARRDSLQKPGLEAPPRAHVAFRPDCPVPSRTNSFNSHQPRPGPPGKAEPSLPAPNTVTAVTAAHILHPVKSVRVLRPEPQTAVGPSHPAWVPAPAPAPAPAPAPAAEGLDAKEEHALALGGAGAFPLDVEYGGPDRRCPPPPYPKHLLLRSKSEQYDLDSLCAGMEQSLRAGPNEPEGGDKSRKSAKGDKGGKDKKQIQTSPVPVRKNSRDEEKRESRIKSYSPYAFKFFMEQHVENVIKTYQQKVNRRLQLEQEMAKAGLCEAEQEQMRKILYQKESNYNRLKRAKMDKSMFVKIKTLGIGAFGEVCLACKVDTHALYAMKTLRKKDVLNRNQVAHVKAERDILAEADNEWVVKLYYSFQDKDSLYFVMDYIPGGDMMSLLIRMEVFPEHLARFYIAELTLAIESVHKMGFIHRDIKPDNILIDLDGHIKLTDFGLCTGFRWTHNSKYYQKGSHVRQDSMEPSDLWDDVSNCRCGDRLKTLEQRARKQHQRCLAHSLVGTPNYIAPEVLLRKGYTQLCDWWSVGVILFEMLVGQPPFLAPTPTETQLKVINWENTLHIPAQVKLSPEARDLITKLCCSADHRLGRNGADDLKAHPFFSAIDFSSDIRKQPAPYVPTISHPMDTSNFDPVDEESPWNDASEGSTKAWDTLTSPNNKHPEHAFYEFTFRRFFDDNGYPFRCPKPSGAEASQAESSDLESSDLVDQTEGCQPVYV
Put plainly: RBC HotSpot kinase assay (33P-ATP, P81 filter-binding), LATS2. Particulars: Table 28, biochemical kinase assay; read-out: LATS2 IC50. In short, it runs like this:
as §1

AKT, sequence (P31749 whole entry): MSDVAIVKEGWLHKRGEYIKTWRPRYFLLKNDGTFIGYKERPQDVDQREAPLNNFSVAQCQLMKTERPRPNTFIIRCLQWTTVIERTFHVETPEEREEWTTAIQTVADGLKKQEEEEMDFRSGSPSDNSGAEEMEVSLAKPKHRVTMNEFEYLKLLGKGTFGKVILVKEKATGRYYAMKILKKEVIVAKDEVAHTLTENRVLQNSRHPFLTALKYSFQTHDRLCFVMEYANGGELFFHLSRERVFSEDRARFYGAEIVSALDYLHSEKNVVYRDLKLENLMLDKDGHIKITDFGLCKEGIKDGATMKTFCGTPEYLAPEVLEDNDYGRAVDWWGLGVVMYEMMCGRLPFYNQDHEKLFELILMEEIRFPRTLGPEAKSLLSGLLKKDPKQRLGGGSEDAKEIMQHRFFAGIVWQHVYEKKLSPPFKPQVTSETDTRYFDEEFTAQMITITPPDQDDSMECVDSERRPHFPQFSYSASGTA

Turning to `C[C@@H]1CN(C(=O)[C@@H]2COCCN2)C[C@H](C)C1(O)c1c(F)cc(-c2ccnc3[nH]cc(F)c23)cc1F` (stereo partly drawn) [Compound 81, ((3S,5R)-4-(2,6-difluoro-4-(3-fluoro-1H-pyrrolo[2,3-b]pyridin-4-yl)phenyl)-4-hydroxy-3,5-dimethylpiperidin-1-yl)((S)-morpholin-3-yl)methanone], the IC50 was found to be 24.1 nM at LATS1, 1020 nM at AKT and 22.4 nM on LATS2.

As for `C[C@H](N)C(=O)N1C[C@@H](C)C(O)(c2c(F)cc(-c3ccnc4[nH]cc(F)c34)cc2F)[C@@H](C)C1` (stereo partly drawn) [Compound 82, (2S)-2-amino-1-((3S,5R)-4-(2,6-difluoro-4-(3-fluoro-1H-pyrrolo[2,3-b]pyridin-4-yl)phenyl)-4-hydroxy-3,5-dimethylpiperidin-1-yl)propan-1-one], the IC50 at LATS1 was found to be 14.5 nM; at AKT, 506 nM; on LATS2, 14.2 nM.

For `CNCC(=O)N1C[C@@H](C)C(O)(c2c(F)cc(-c3ccnc4[nH]cc(F)c34)cc2F)[C@@H](C)C1` (stereo partly drawn) [Compound 83, 1-((3S,5R)-4-(2,6-difluoro-4-(3-fluoro-1H-pyrrolo[2,3-b]pyridin-4-yl)phenyl)-4-hydroxy-3,5-dimethylpiperidin-1-yl)-2-(methylamino) ethan-1-one], the IC50 worked out at 25 nM at LATS1, 570 nM on AKT and 21.3 nM on LATS2.

For the molecule `C[C@@H]1CN(C(=O)[C@@H]2CCCN2)C[C@H](C)C1(O)c1c(F)cc(-c2ccnc3[nH]cc(F)c23)cc1F` (stereo partly drawn) [Compound 84, 4-(4-((3S,5R)-1-(L-prolyl)-4-hydroxy-3,5-dimethylpiperidin-4-yl)-3,5-difluorophenyl)-3-fluoro-1H-pyrrolo[2,3-b]pyridine], the figures for the IC50 on LATS1, at AKT and at LATS2 were 21.6 nM, 1470 nM and 10.3 nM, respectively.

On to `C[C@@H]1CN(C(=O)[C@H]2CCCN2)C[C@H](C)C1(O)c1c(F)cc(-c2ccnc3[nH]cc(F)c23)cc1F` (stereo partly drawn) [Compound 85, 4-(4-((3S,5R)-1-(D-prolyl)-4-hydroxy-3,5-dimethylpiperidin-4-yl)-3,5-difluorophenyl)-3-fluoro-1H-pyrrolo[2,3-b]pyridine], for which the IC50 was determined as 5.8 nM on LATS1, 659 nM at AKT and 4.7 nM at LATS2.

On to `C[C@@H]1CN(C(=O)[C@@H](C)N)C[C@H](C)C1(O)c1c(F)cc(-c2ccnc3[nH]cc(F)c23)cc1F` (stereo partly drawn) [Compound 86, (2R)-2-amino-1-((3S,5R)-4-(2,6-difluoro-4-(3-fluoro-1H-pyrrolo[2,3-b]pyridin-4-yl)phenyl)-4-hydroxy-3,5-dimethylpiperidin-1-yl)propan-1-one], for which the IC50 was 20.3 nM at LATS1, 691 nM at AKT and 6.5 nM at LATS2.

Consider `C[C@@H]1CN(C(=O)CN)C[C@H](C)C1(O)c1cnc(-c2ccnc3[nH]cc(F)c23)cc1F` (stereo partly drawn) [Compound 87, 2-amino-1-((3S,5R)-4-(4-fluoro-6-(3-fluoro-1H-pyrrolo[2,3-b]pyridin-4-yl)pyridin-3-yl)-4-hydroxy-3,5-dimethylpiperidin-1-yl)ethan-1-one], for which the IC50 on LATS1 amounted to 48 nM; on AKT, 4010 nM; on LATS2, 47.3 nM.

For `C[C@@H]1CN(C2CC3(CNC3)C2)C[C@H](C)[C@@]1(O)c1c(F)cc(-c2ccnc3[nH]cc(F)c23)cc1F` [Compound 89, (3R,4s,5S)-4-(2,6-difluoro-4-(3-fluoro-1H-pyrrolo[2,3-b]pyridin-4-yl)phenyl)-3,5-dimethyl-1-(2-azaspiro[3.3]heptan-6-yl)piperidin-4-ol], the results for the IC50 at LATS1, on AKT and on LATS2 were 3.7 nM, 68 nM and 3.8 nM, respectively.

For `Cc1cc(-c2ccnc3[nH]cc(F)c23)cc(F)c1[C@@]1(O)[C@H](C)CN(C2CCNCC2)C[C@@H]1C` [Compound 91, (3S,4s,5R)-4-(2-fluoro-4-(3-fluoro-1H-pyrrolo[2,3-b]pyridin-4-yl)-6-methylphenyl)-3,5-dimethyl-[1,4′-bipiperidin]-4-ol], the IC50 is 7.9 nM on LATS1, 179 nM on AKT and 4.2 nM at LATS2.

For `C[C@@H]1CN(Cc2ccccc2)C[C@H](C)[C@@]1(O)c1c(F)cc(-c2ccnc3[nH]cc(F)c23)cc1F` [Compound 93, (3S,4s,5R)-1-benzyl-4-(2,6-difluoro-4-(3-fluoro-1H-pyrrolo[2,3-b]pyridin-4-yl)phenyl)-3,5-dimethylpiperidin-4-ol], the figures for the IC50 at LATS1, on AKT and at LATS2 were 10.6 nM, 2090 nM and 7.7 nM, respectively.

For `CC(=O)N1C[C@@H](C)[C@](O)(c2c(F)cc(-c3ccnc4[nH]cc(F)c34)cc2F)[C@@H](C)C1` [Compound 94, 1-((3S,4s,5R)-4-(2,6-difluoro-4-(3-fluoro-1H-pyrrolo[2,3-b]pyridin-4-yl)phenyl)-4-hydroxy-3,5-dimethylpiperidin-1-yl)ethan-1-one], the IC50 was 17.8 nM at LATS1, 4750 nM on AKT and 29.4 nM on LATS2.

For the molecule `CC(=O)N1C[C@@H](C)[C@](O)(c2c(C)cc(-c3ccnc4[nH]cc(F)c34)cc2F)[C@@H](C)C1` [Compound 95, 1-((3S,5R)-4-(2-fluoro-4-(3-fluoro-1H-pyrrolo[2,3-b]pyridin-4-yl)-6-methylphenyl)-4-hydroxy-3,5-dimethylpiperidin-1-yl)ethan-1-one], the concentration for half-maximal inhibition (IC50) was 6.9 nM on LATS1, 2620 nM at AKT and 4.8 nM at LATS2.

On to `OC1(c2ccc(-c3ccnc4[nH]cc(F)c34)cc2Cl)CCN2CCCC2C1` (stereo not drawn) [Compound 96, 7-(2-chloro-4-(3-fluoro-1H-pyrrolo[2,3-b]pyridin-4-yl)phenyl)octahydroindolizin-7-ol], for which the IC50 on LATS1 is 17 nM; at AKT, 771 nM; on LATS2 it was 17.9 nM.

On to `OC1(c2ccc(-c3ccnc4[nH]cc(F)c34)cc2Cl)CCNCC1` [Compound 97, 4-(2-chloro-4-(3-fluoro-1H-pyrrolo[2,3-b]pyridin-4-yl)phenyl)piperidin-4-ol], for which the results for the IC50 at LATS1, on AKT and at LATS2 were 11.4 nM, 712 nM and 42.8 nM, respectively.

Consider `CC1CC(O)(c2ccc(-c3ccnc4[nH]cc(F)c34)cc2Cl)CCN1` (stereo not drawn) [Compound 98, 4-(2-chloro-4-(3-fluoro-1H-pyrrolo[2,3-b]pyridin-4-yl)phenyl)-2-methylpiperidin-4-ol], for which the IC50 at LATS1 was found to be 24 nM; on AKT it was 383 nM; at LATS2 it was 37 nM.
